From patent US12673944B2, “Compounds having inhibitory activity against glucosylceramide synthase or pharmaceutically acceptable salt thereof, processes for preparing the same, and pharmaceutical compositions comprising the same” (YUHAN CORPORATION, priority 2019, dated 2026)

Tests used:
[1] = target: T1, glucosylceramide synthase (GCS) (Homo sapiens, UniProt Q16739); assay: GCS enzyme inhibition assay (A549 cell lysate, NBD C6-ceramide, HPLC fluorescence); format: biochemical; settings: inhibitory activity against GCS, 37° C., 90 minutes
T1 construct: The obtained supernatant was used; host or cells: A549 cells (lysate supernatant after sonication)
T1 sequence (Q16739 1-394): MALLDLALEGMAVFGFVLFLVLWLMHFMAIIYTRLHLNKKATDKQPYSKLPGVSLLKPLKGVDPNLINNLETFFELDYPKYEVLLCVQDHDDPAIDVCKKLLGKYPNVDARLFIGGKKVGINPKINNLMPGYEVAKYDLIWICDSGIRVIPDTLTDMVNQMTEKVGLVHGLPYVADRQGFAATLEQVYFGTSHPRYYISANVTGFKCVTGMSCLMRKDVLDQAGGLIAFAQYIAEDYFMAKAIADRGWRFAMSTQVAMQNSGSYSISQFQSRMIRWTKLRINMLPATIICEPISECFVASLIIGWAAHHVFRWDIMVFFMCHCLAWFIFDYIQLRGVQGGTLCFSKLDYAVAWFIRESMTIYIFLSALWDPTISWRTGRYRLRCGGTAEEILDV
In short: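 A549 cell lysate (50 mM HEPES pH 7.3) served as GCS source; reactions ran 90 min at 37° C, were stopped with chloroform/methanol and lipids extracted. Activity taken as GlcCer/(Cer+GlcCer) peak area, normalised between DMSO and ibiglustat controls.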

[2] = system: GM1 production in Jurkat cells; assay: cells; format: cell-based; settings: Homo sapiens, Jurkat, 72 h

Structure (SMILES)	IC50 [1] [nM]	IC50 [2] [nM]
O=C(NC1CCOc2ccc(-c3ccccc3OC(F)(F)F)cc21)O[C@@H]1CN2CCC1CC2 (stereo partly drawn) [Example 96, (S)-quinuclidin-3-yl (6-(2-(trifluoromethoxy)phenyl)chroman-4-yl)carbamate]	8.55	78.9
CSc1ccc(-c2ccc3c(c2)C(NC(=O)O[C@@H]2CN4CCC2CC4)CCO3)cc1 (stereo partly drawn) [Example 97, (S)-quinuclidin-3-yl (6-(4-(methylthio)phenyl)chroman-4-yl)carbamate]	11.5	502
CSc1cccc(-c2ccc3c(c2)C(NC(=O)O[C@@H]2CN4CCC2CC4)CCO3)c1 (stereo partly drawn) [Example 98, (S)-quinuclidin-3-yl (6-(3-(methylthio)phenyl)chroman-4-yl)carbamate]	14.9	525
Cc1ccc(-c2ccc3c(c2)C(NC(=O)O[C@@H]2CN4CCC2CC4)CCO3)cc1 (stereo partly drawn) [Example 99, (S)-quinuclidin-3-yl (6-(p-tolyl)chroman-4-yl)carbamate]	19.2	322
N#Cc1ccc(-c2ccc3c(c2)C(NC(=O)O[C@@H]2CN4CCC2CC4)CCO3)cc1 (stereo partly drawn) [Example 100, (S)-quinuclidin-3-yl (6-(4-cyanophenyl)chroman-4-yl)carbamate]	7.1	289
CC1(C)COc2ccc(-c3cccc(F)c3)cc2C1NC(=O)O[C@@H]1CN2CCC1CC2 (stereo partly drawn) [Example 101, (S)-quinuclidin-3-yl (6-(3-fluorophenyl)-3,3-dimethylchroman-4-yl)carbamate]	9.2	65.9
CC1(C)COc2cc(-c3cccc(F)c3)ccc2C1NC(=O)O[C@@H]1CN2CCC1CC2 (stereo partly drawn) [Example 102, (S)-quinuclidin-3-yl (7-(3-fluorophenyl)-3,3-dimethylchroman-4-yl)carbamate]	0.8	2.81
CC1(C)COc2cc(-c3cccc(Cl)c3)ccc2C1NC(=O)O[C@@H]1CN2CCC1CC2 (stereo partly drawn) [Example 103, (S)-quinuclidin-3-yl (7-(3-chlorophenyl)-3,3-dimethylchroman-4-yl)carbamate]	1	1.43
CC1(C)COc2cc(-c3cccc(C(F)(F)F)c3)ccc2C1NC(=O)O[C@@H]1CN2CCC1CC2 (stereo partly drawn) [Example 104, (S)-quinuclidin-3-yl (3,3-dimethyl-7-(3-(trifluoromethyl)phenyl)chroman-4-yl)carbamate]	1	1.02
CC1(C)COc2cc(-c3cccc(OC(F)(F)F)c3)ccc2C1NC(=O)O[C@@H]1CN2CCC1CC2 (stereo partly drawn) [Example 105, (S)-quinuclidin-3-yl (3,3-dimethyl-7-(3-(trifluoromethoxy)phenyl)chroman-4-yl)carbamate]	1.11	1.41
COCOc1ccccc1-c1ccc2c(c1)OCC(C)(C)C2NC(=O)O[C@@H]1CN2CCC1CC2 (stereo partly drawn) [Example 106, (S)-quinuclidin-3-yl (7-(2-(methoxymethoxy)phenyl)-3,3-dimethylchroman-4-yl)carbamate]	1.17	0.22
COCOc1cccc(-c2ccc3c(c2)OCC(C)(C)C3NC(=O)O[C@@H]2CN3CCC2CC3)c1 (stereo partly drawn) [Example 107, (S)-quinuclidin-3-yl (7-(3-(methoxymethoxy)phenyl)-3,3-dimethylchroman-4-yl)carbamate]	1.17	0.1
COCOc1ccc(-c2ccc3c(c2)OCC(C)(C)C3NC(=O)O[C@@H]2CN3CCC2CC3)cc1 (stereo partly drawn) [Example 108, (S)-quinuclidin-3-yl (7-(4-(methoxymethoxy)phenyl)-3,3-dimethylchroman-4-yl)carbamate]	0.69	0.46
COCCOc1ccccc1-c1ccc2c(c1)OCC(C)(C)C2NC(=O)O[C@@H]1CN2CCC1CC2 (stereo partly drawn) [Example 109, (S)-quinuclidin-3-yl (7-(2-(2-methoxyethoxy)phenyl)-3,3-dimethylchroman-4-yl)carbamate]	2.14	2
COCCOc1cccc(-c2ccc3c(c2)OCC(C)(C)C3NC(=O)O[C@@H]2CN3CCC2CC3)c1 (stereo partly drawn) [Example 110, (S)-quinuclidin-3-yl (7-(3-(2-methoxyethoxy)phenyl)-3,3-dimethylchroman-4-yl)carbamate]	1.3	0.12
COCCOc1ccc(-c2ccc3c(c2)OCC(C)(C)C3NC(=O)O[C@@H]2CN3CCC2CC3)cc1 (stereo partly drawn) [Example 111, (S)-quinuclidin-3-yl (7-(4-(2-methoxyethoxy)phenyl)-3,3-dimethylchroman-4-yl)carbamate]	1.93	1.27
CC1(C)COc2cc(-c3cccc(C(F)F)c3)ccc2C1NC(=O)O[C@@H]1CN2CCC1CC2 (stereo partly drawn) [Example 112, (S)-quinuclidin-3-yl (7-(3-(difluoromethyl)phenyl)-3,3-dimethylchroman-4-yl)carbamate]	0.53	0.55
Cc1ccc(-c2ccc3c(c2)OCC(C)(C)C3NC(=O)O[C@@H]2CN3CCC2CC3)c2cccnc12 (stereo partly drawn) [Example 113, (S)-quinuclidin-3-yl (3,3-dimethyl-7-(8-methylquinolin-5-yl)chroman-4-yl)carbamate]	2.92	13
COc1cc(OC)cc(-c2ccc3c(c2)OCC(C)(C)C3NC(=O)O[C@@H]2CN3CCC2CC3)c1 (stereo partly drawn) [Example 114, (S)-quinuclidin-3-yl (7-(3,5-dimethoxyphenyl)-3,3-dimethylchroman-4-yl)carbamate]	0.75	2.81
COc1ccc(-c2ccc3c(c2)OCC(C)(C)C3NC(=O)O[C@@H]2CN3CCC2CC3)cc1C (stereo partly drawn) [Example 115, (S)-quinuclidin-3-yl (7-(4-methoxy-3-methylphenyl)-3,3-dimethylchroman-4-yl)carbamate]	1.88	3.72
COc1ccc(-c2ccc3c(c2)OCC(C)(C)C3NC(=O)O[C@@H]2CN3CCC2CC3)c(C)c1 (stereo partly drawn) [Example 116, (S)-quinuclidin-3-yl (7-(4-methoxy-2-methylphenyl)-3,3-dimethylchroman-4-yl)carbamate]	1.39	1.16
COc1ccc(-c2ccc3c(c2)OCC(C)(C)C3NC(=O)O[C@@H]2CN3CCC2CC3)cc1Cl (stereo partly drawn) [Example 117, (S)-quinuclidin-3-yl (7-(3-chloro-4-methoxyphenyl)-3,3-dimethylchroman-4-yl)carbamate]	1.66	4.43
COc1ccc(-c2ccc3c(c2)OCC(C)(C)C3NC(=O)O[C@@H]2CN3CCC2CC3)cc1F (stereo partly drawn) [Example 118, (S)-quinuclidin-3-yl (7-(3-fluoro-4-methoxyphenyl)-3,3-dimethylchroman-4-yl)carbamate]	1.63	3.63
COc1ccc(-c2ccc3c(c2)OCC(C)(C)C3NC(=O)O[C@@H]2CN3CCC2CC3)c(Cl)c1 (stereo partly drawn) [Example 119, (S)-quinuclidin-3-yl (7-(2-chloro-4-methoxyphenyl)-3,3-dimethylchroman-4-yl)carbamate]	0.65	1.25
COc1cc(F)ccc1-c1ccc2c(c1)OCC(C)(C)C2NC(=O)O[C@@H]1CN2CCC1CC2 (stereo partly drawn) [Example 120, (S)-quinuclidin-3-yl (7-(4-fluoro-2-methoxyphenyl)-3,3-dimethylchroman-4-yl)carbamate]	0.71	6.41
COc1cccc(Cl)c1-c1ccc2c(c1)OCC(C)(C)C2NC(=O)O[C@@H]1CN2CCC1CC2 (stereo partly drawn) [Example 121, (S)-quinuclidin-3-yl (7-(2-chloro-6-methoxyphenyl)-3,3-dimethylchroman-4-yl)carbamate]	2.67	15.9
